Assay results as given in ChEMBL document CHEMBL1201862, “PubChem BioAssay data set” (2004).
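How tested: cells in 96-well plates exposed to compound for 48 hours at five concentrations. GI50: concentration for 50% inhibition of growth.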 The source made the active and inactive calls. Cut-off read from the data, not from the text of the source: active = GI50 up to about 1.1 µM and inactive = higher. Square brackets hold non-standard residues; d marks the D form. Peptide text beside a SMILES is read from it. * marks the point of attachment. Boc = CC(C)(C)OC(=O)*; Lac = C[CH](O)C(=O)O; OBn = c1ccc(CO*)cc1

Columns and labels:
Assay in all cases: NCI anticancer screen, dose series, 48 h
DU-145 = tested on: DU-145
MCF7 = tested on: MCF7
MDA-MB-231 = tested on: MDA-MB-231
786-0 = tested on: 786-0
DLD-1 = tested on: DLD-1
XF498 = tested on: XF498
KM-20L2 = tested on: KM-20L2
SNB-78 = tested on: SNB-78
RXF 631 = tested on: RXF 631

Row | SMILES | GI50 (DU-145) | GI50 (MCF7) | GI50 (MDA-MB-231) | GI50 (786-0) | GI50 (DLD-1) | GI50 (XF498) | GI50 (KM-20L2) | GI50 (SNB-78) | GI50 (RXF 631)
1 | Nc1ccn(C2OC(CO[PH](=O)OC3C(CO[PH](=O)OC4C(CO[PH](=O)OC5C(CO[PH](=O)OC6C(CO[PH](=O)OC7C(CO[PH](=O)OC8C(CO[PH](=O)OC9C(CO[PH](=O)OC%10C(CO[PH](=O)OC%11C(CO)OC(n%12ccc(N)nc%12=O)C%11(F)F)OC(n%11ccc(N)nc%11=O)C%10(F)F)OC(n%10ccc(N)nc%10=O)C9(F)F)OC(n9ccc(N)nc9=O)C8(F)F)OC(n8ccc(N)nc8=O)C7(F)F)OC(n7ccc(N)nc7=O)C6(F)F)OC(n6ccc(N)nc6=O)C5(F)F)OC(n5ccc(N)nc5=O)C4(F)F)OC(n4ccc(N)nc4=O)C3(F)F)C(O)C2(F)F)c(=O)n1 (stereo not drawn) | 0.0109 µM (active) | 0.0103 µM (active) | 1.4 µM (inactive) |  |  |  |  |  | 
2 | COc1cc2cc(C(=O)N3CC(CCl)c4ccc(NO)cc43)[nH]c2c(OC)c1OC (stereo not drawn) | 0.0953 µM (active) | 0.0391 µM (active) | 0.254 µM (active) | 0.287 µM (active) |  |  |  |  | 
3 | O=C1Nc2ccc(Cl)cc2/C1=C\c1c(Cl)nc2sccn12 | 73.5 µM (inactive) |  | 2.56 µM (inactive) |  |  |  |  |  | 
4 | C[C@H]1S[C@@H](c2ccc(Cl)cc2Cl)N(NC(=O)c2ccncc2)C1=O | 71.3 µM (inactive) | 45 µM (inactive) | 49.2 µM (inactive) |  |  |  |  |  | 
5 | Nc1ccccc1C(=O)N/N=C1\C(=O)Nc2ccccc21 | > 100 µM (inactive) | > 100 µM (inactive) | 19.6 µM (inactive) | 37.6 µM (inactive) |  |  |  |  | 
6 | CC/C=C\C/C=C\C/C=C\CCCCCCCC(=O)OC [METHYL LINOLENATE] |  | > 100 µM (inactive) |  |  | > 100 µM (inactive) | > 100 µM (inactive) |  |  | 
7 | O=C(OCCOC(=O)c1ccc2c(c1)C1(SCCS1)c1ccccc1-2)c1ccc2c(c1)C1(SCCS1)c1ccccc1-2 |  |  |  |  | > 100 µM (inactive) |  | > 100 µM (inactive) | > 100 µM (inactive) | 
8 | CC(OC(=O)C(Cc1ccccc1)NC(=O)C(Cc1ccccc1)NC(=O)OC(C)(C)C)C(=O)OCc1ccccc1 (stereo not drawn) (Boc-Phe-Phe-[Lac]-OBn; configuration not given here) | > 100 µM (inactive) | 17.8 µM (inactive) | > 100 µM (inactive) |  |  |  |  |  | 
9 | Cc1n[nH]c(CC#N)n1 | > 100 µM (inactive) | > 100 µM (inactive) | > 100 µM (inactive) | > 100 µM (inactive) |  |  |  |  | 
10 | Cn1c(=O)c(C#N)c(O)c2cc3ccccc3nc21 |  |  |  |  | > 100 µM (inactive) | > 100 µM (inactive) |  | > 100 µM (inactive) | 
11 | OC1CCOc2ccccc21 (stereo not drawn) |  |  |  |  | > 100 µM (inactive) | > 100 µM (inactive) | > 100 µM (inactive) |  | 
12 | O=C1CCC(NC(=O)Cc2ccc(O)cc2)C(=O)N1 (stereo not drawn) |  |  |  |  |  | > 2500 µM (inactive) | > 2500 µM (inactive) | > 2500 µM (inactive) | > 2500 µM (inactive)
13 | COc1ccc(C(=O)NNC(=O)c2nsc3ccccc23)cc1 |  |  |  |  |  |  | 35.9 µM (inactive) | > 100 µM (inactive) | 
14 | CCC(=O)NC(Nc1cccc(F)c1)(C(F)(F)F)C(F)(F)F | > 100 µM (inactive) | > 100 µM (inactive) | > 100 µM (inactive) |  |  |  |  |  | 
15 | COP(=O)(OC)C(N)Cc1c[nH]c2ccccc12 (stereo not drawn) | > 100 µM (inactive) | > 100 µM (inactive) | > 100 µM (inactive) |  |  |  |  |  | 
16 | Cc1ccc(C2CC(c3cccc([N+](=O)[O-])c3)=Nc3ccccc3S2)cc1 (stereo not drawn) |  |  |  | 21.8 µM (inactive) | 20 µM (inactive) | 21.4 µM (inactive) | 44.5 µM (inactive) | 23.2 µM (inactive) | > 93.8 µM (inactive)
